Here are results for 4 compounds from PubChem BioAssay AID1259407 (Chemical Carcinogenesis Research Information System (CCRIS), 2018).

Molecules are shown by their SMILES. Active and inactive are the calls of the source. No rule for the calls is given here.

This data set relates to CCRIS mutagenicity, Ames/micronucleus/aberration tests. Put plainly: CCRIS mutagenicity studies.
Where [1] appears, read: Test System: AMES SALMONELLA TYPHIMURIUM, Strain/Indicator: TA98, Metabolic Activation: NONE, Method: PREINCUBATION
The mark [2] stands for this setting: Test System: AMES SALMONELLA TYPHIMURIUM, Strain/Indicator: TA100, Metabolic Activation: NONE, Method: PREINCUBATION
Setting [3] is: Test System: AMES SALMONELLA TYPHIMURIUM, Strain/Indicator: TA1535, Metabolic Activation: NONE, Method: PREINCUBATION
[4] abbreviates: Test System: AMES SALMONELLA TYPHIMURIUM, Strain/Indicator: TA1537, Metabolic Activation: NONE, Method: PREINCUBATION

As to `C[n+]1c2cc(N)ccc2cc2ccc(N)cc21` (tested in a mixture with another compound), the mutagenic call by setting is: (Test System: AMES SALMONELLA TYPHIMURIUM, Strain/Indicator: TA98, Metabolic Activation: NONE, Method: STANDARD PLATE) “inactive; negative”; (Test System: AMES SALMONELLA TYPHIMURIUM, Strain/Indicator: TA98, Metabolic Activation: RAT, LIVER, S-9, AROCLOR 1254, Method: STANDARD PLATE) “active; positive”; (Test System: AMES SALMONELLA TYPHIMURIUM, Strain/Indicator: TA1537, Metabolic Activation: NONE, Method: STANDARD PLATE) “inactive; negative”; (Test System: AMES SALMONELLA TYPHIMURIUM, Strain/Indicator: TA1537, Metabolic Activation: RAT, LIVER, S-9, AROCLOR 1254, Method: STANDARD PLATE) “active; positive”; (Test System: AMES SALMONELLA TYPHIMURIUM, Strain/Indicator: TA1538, Metabolic Activation: NONE, Method: STANDARD PLATE) “inactive; negative”; (Test System: AMES SALMONELLA TYPHIMURIUM, Strain/Indicator: TA1538, Metabolic Activation: RAT, LIVER, S-9, AROCLOR 1254, Method: STANDARD PLATE) “active; positive”. Besides, the mutagenic call (Test System: CHINESE HAMSTER OVARY, Strain/Indicator: CHO-K1-BH4 (HGPRT), Metabolic Activation: RAT, LIVER, S-9, AROCLOR, Method: SUSPENSION/PLATE) is “active; positive”.

Take `COC1=CC(=O)O[C@@H](CCc2ccccc2)C1`: for the setting “Test System: Mouse lymphoma cells, Strain/Indicator: L5178Y ( tk+/tk-), Metabolic Activation: Human, Liver, S-9, Method: Suspension/plate”, the mutagenic call is “inactive; negative”.

Consider `OCCN(CCO)CCO`, for which the mutagenic call was “inactive; negative” (End Point: IN VITRO CHROMOSOMAL ABERRATIONS, Test System: CHINESE HAMSTER OVARY CELLS, Metabolic Activation: NONE); “inactive; negative” (End Point: IN VITRO CHROMOSOMAL ABERRATIONS, Test System: CHINESE HAMSTER OVARY CELLS, Metabolic Activation: RAT, LIVER, S-9, AROCLOR 1254); “inactive; negative” (End Point: IN VITRO CHROMOSOMAL ABERRATIONS, Test System: CHO, Metabolic Activation: NONE); “inactive; negative” (End Point: IN VITRO CHROMOSOMAL ABERRATIONS, Test System: CHO, Metabolic Activation: RAT, LIVER, S-9, AROCLOR 1254); “inactive; negative” (End Point: IN VIVO MICRONUCLEUS, Test System: POLYCHROMATIC BLOOD LYMPHOCYTES, Species: MOUSE, Strain/Sex: B6C3F1/MALE, FEMALE, Route: DERMAL); “inactive; negative” (Test System: AMES SALMONELLA TYPHIMURIUM, Strain/Indicator: TA98, Metabolic Activation: HAMSTER LIVER S-9, AROCLOR-1254 (10%), Method: PREINCUBATION). Besides, the mutagenic call (Test System: AMES SALMONELLA TYPHIMURIUM, Strain/Indicator: TA98, Metabolic Activation: HAMSTER, LIVER, S-9 (10%), AROCLOR 1254, Method: PREINCUBATION) is “inactive; negative”; the mutagenic call under setting [1] is “inactive; negative”; the mutagenic call (Test System: AMES SALMONELLA TYPHIMURIUM, Strain/Indicator: TA98, Metabolic Activation: RAT LIVER S-9, AROCLOR-1254 (10%), Method: PREINCUBATION) is “inactive; negative”; the mutagenic call (Test System: AMES SALMONELLA TYPHIMURIUM, Strain/Indicator: TA98, Metabolic Activation: RAT, LIVER, S-9 (10%), AROCLOR 1254, Method: PREINCUBATION) is “inactive; negative”; the mutagenic call (Test System: AMES SALMONELLA TYPHIMURIUM, Strain/Indicator: TA100, Metabolic Activation: HAMSTER LIVER S-9, AROCLOR-1254 (10%), Method: PREINCUBATION) was “inactive; negative”; the mutagenic call (Test System: AMES SALMONELLA TYPHIMURIUM, Strain/Indicator: TA100, Metabolic Activation: HAMSTER, LIVER, S-9 (10%), AROCLOR 1254, Method: PREINCUBATION) was “inactive; negative”. The mutagenic call reads like this: under setting [2], “inactive; negative”; (Test System: AMES SALMONELLA TYPHIMURIUM, Strain/Indicator: TA100, Metabolic Activation: RAT LIVER S-9, AROCLOR-1254 (10%), Method: PREINCUBATION) “inactive; negative”; (Test System: AMES SALMONELLA TYPHIMURIUM, Strain/Indicator: TA100, Metabolic Activation: RAT, LIVER, S-9 (10%), AROCLOR 1254, Method: PREINCUBATION) “inactive; negative”; (Test System: AMES SALMONELLA TYPHIMURIUM, Strain/Indicator: TA1535, Metabolic Activation: HAMSTER LIVER S-9, AROCLOR-1254 (10%), Method: PREINCUBATION) “inactive; negative”; (Test System: AMES SALMONELLA TYPHIMURIUM, Strain/Indicator: TA1535, Metabolic Activation: HAMSTER, LIVER, S-9 (10%), AROCLOR 1254, Method: PREINCUBATION) “inactive; negative”; under setting [3], “inactive; negative”. Further, the mutagenic call (Test System: AMES SALMONELLA TYPHIMURIUM, Strain/Indicator: TA1535, Metabolic Activation: RAT LIVER S-9, AROCLOR-1254 (10%), Method: PREINCUBATION) was “inactive; negative”; the mutagenic call (Test System: AMES SALMONELLA TYPHIMURIUM, Strain/Indicator: TA1535, Metabolic Activation: RAT, LIVER, S-9 (10%), AROCLOR 1254, Method: PREINCUBATION) was “inactive; negative”; the mutagenic call (Test System: AMES SALMONELLA TYPHIMURIUM, Strain/Indicator: TA1537, Metabolic Activation: HAMSTER LIVER S-9, AROCLOR-1254 (10%), Method: PREINCUBATION) was “inactive; negative”; the mutagenic call (Test System: AMES SALMONELLA TYPHIMURIUM, Strain/Indicator: TA1537, Metabolic Activation: HAMSTER, LIVER, S-9 (10%), AROCLOR 1254, Method: PREINCUBATION) is “inactive; negative”; the mutagenic call under setting [4] was “inactive; negative”; the mutagenic call (Test System: AMES SALMONELLA TYPHIMURIUM, Strain/Indicator: TA1537, Metabolic Activation: RAT LIVER S-9, AROCLOR-1254 (10%), Method: PREINCUBATION) was “inactive; negative”. The mutagenic call (Test System: AMES SALMONELLA TYPHIMURIUM, Strain/Indicator: TA1537, Metabolic Activation: RAT, LIVER, S-9 (10%), AROCLOR 1254, Method: PREINCUBATION) was “inactive; negative”.

With `COc1cc(CCCS(=O)(=O)O)ccc1O[C@H](Cc1cccc(OC)c1O)CS(=O)(=O)O`, the mutagenic call reads like this: (Test System: AMES SALMONELLA TYPHIMURIUM, Strain/Indicator: TA98, Metabolic Activation: HAMSTER, LIVER, S-9, AROCLOR 1254, Method: PREINCUBATION) “inactive; negative”; under setting [1], “inactive; negative”; (Test System: AMES SALMONELLA TYPHIMURIUM, Strain/Indicator: TA98, Metabolic Activation: RAT, LIVER, S-9, AROCLOR 1254, Method: PREINCUBATION) “inactive; negative”; (Test System: AMES SALMONELLA TYPHIMURIUM, Strain/Indicator: TA100, Metabolic Activation: HAMSTER, LIVER, S-9, AROCLOR 1254, Method: PREINCUBATION) “inactive; negative”; under setting [2], “inactive; negative”; (Test System: AMES SALMONELLA TYPHIMURIUM, Strain/Indicator: TA100, Metabolic Activation: RAT, LIVER, S-9, AROCLOR 1254, Method: PREINCUBATION) “inactive; negative”. The mutagenic call (Test System: AMES SALMONELLA TYPHIMURIUM, Strain/Indicator: TA1535, Metabolic Activation: HAMSTER, LIVER, S-9, AROCLOR 1254, Method: PREINCUBATION) is “inactive; negative”; the mutagenic call under setting [3] was “inactive; negative”; the mutagenic call (Test System: AMES SALMONELLA TYPHIMURIUM, Strain/Indicator: TA1535, Metabolic Activation: RAT, LIVER, S-9, AROCLOR 1254, Method: PREINCUBATION) was “inactive; negative”; the mutagenic call (Test System: AMES SALMONELLA TYPHIMURIUM, Strain/Indicator: TA1537, Metabolic Activation: HAMSTER, LIVER, S-9, AROCLOR 1254, Method: PREINCUBATION) is “inactive; negative”; the mutagenic call under setting [4] is “inactive; negative”; the mutagenic call (Test System: AMES SALMONELLA TYPHIMURIUM, Strain/Indicator: TA1537, Metabolic Activation: RAT, LIVER, S-9, AROCLOR 1254, Method: PREINCUBATION) was “inactive; negative”.
